Where two headings read alike, the source gives them in different places.
Assays:
[1] = organ distribution of DXR after administration free or in liposomes; type: in vivo
[2] = single injection survival with graded doses of F-DXR and L-DXR; design: species or system mice; conditions: mouse, in vivo, iv, 90 days
Experimental: L-DXR was prepared as in Example I, to final DXR concentrations of 1, 1.5, 2, and 2.5 mg/ml, with corresponding phospholipid concentrations of 16, 24, 32, and 40 μmole/ml, respectively, and cholesterol concentrations of 6.4, 9.6, 12.8, and 16 μmole/ml, respectively. Free DXR (F-DXR) was prepared in sterile, pyrogen-free physiologic saline solution to final concentrations of 1, 1.5, 2, and 2.5 mg/ml.
BALB/c male mice were treated intravenously with 4 different doses of F-DXR and L-DXR: 10, 15, 20, and 25 mg/kg, by administering about 1% total animal weight of the corresponding F-DXR or L-DXR formulation. […] No mortality was registered among animals treated with 15 and 10 mg/kg of L-DXR and 60% of the mice injected with 20 mg/kg survived throughout 90 days. F-DXR caused 100% of mortality in the groups injected with 25, 20, and 15 mg/kg and 20% mortality in the group receiving 10 mg/kg.

[3] = blood biochemistry after repeated administration; type: in vivo, mice; conditions: mouse, in vivo, iv, female, read-out: % Surviving (Table IX)
Experimental: (§1) Sabra mice were divided into groups of 15 mice. Three different doses of either F-DXR or L-DXR were tested: 5, 7.5, and 10 mg/kg body weight. Each dose level was tested on 15 male and 15 female mice. Treatment was administered as a bolus injection through the tail vein on days 0, 14, 28, 42, 56, 70, 84, and 98 of the experiment. The pulsed injection scheme was used for the purpose of achieving high cumulative doses, prolonging the period of exposure of the animals to the drug, and mimicking the way DXR is usually administered in clinical practice. In view of the toxicity observed after single injection (Example XI), DXR was administered at a maximum 10 mg/kg dosage so that the occurrence of acute toxicity would be reduced or nil. In order to avoid the overlapping myelosuppression of successive treatment, 14 days were allowed between successive injections, based on previous observations that full regeneration of the activity of myeloid centers in the spleen after treatment with 10 mg/kg of DXR occurred between 7-12 days after drug administration.
(§2) During the course of the experiment, mice were inspected daily and survival curves were recorded. Whenever possible, dead mice were autopsied and a limited sample of organs sent for histopathological examination. Blood counts and body weights were checked weekly. The blood counts were done in a Coulter analyzer with a 20 μl sample obtained from the retro-orbital blood sinuses. One-third of the mice of each group were sacrificed on day 42, after 3 injections. A second third was sacrificed on day 84, after 6 injections. The remaining mice were sacrificed on day 180, 82 days after the 8the and last injection. Before sacrifice, the mice were bled under light ether anesthesia to obtain serum for the biochemical tests. The animals were then dissected and the removed organs, after weighing, were fixed in Bouin's solution and processed for light microscopy examination with hematoxylin-eosin-phosphomolybdic acid: light green stain.
(§3) d) Effects on Blood Biochemistry Values. Blood levels of glucose, cholesterol, triglycerides, urea, uric acid, creatine, and total protein were measured at 42, 84, and 180 day time points. Blood enzyme levels of alkaline phosphatase, aspartate aminotransferase, and alanine aminotransferase were also assayed at these time points.
(§4) The most important differences in blood chemistry between F-DXR and L-DXR administration occurred in blood glucose, cholesterol, and triglyceride levels. These differences are seen in Table III below, which gives data on female mice receiving 10 mg/kg of either F-DXR or L-DXR. Glucose, cholesterol, and triglyceride levels are expressed as percent control (untreated) animals, and "nm" means "not measured".

[4] = tested on: Sabra mice; assay: blood biochemistry after repeated administration; type: in vivo
Experimental: as §1, §2, §3, §4

[5] = fluorescence of DXR-Fe(III) complex with SUVs (drug modification); type: physicochemical; conditions: in presence of SUVs with saturated and/or unsaturated phospholipids
Description: The studies examined the binding of DXR to ferric iron, both in the presence and absence of small unilamellar vesicles (SUVs) formed from the saturated phospholipid dimyristylphosphatidylcholine (DMPC).
One measure of this modification is a change in the 590/560 nm ratio of the fluorescence spectra, which would result from modification of the antracene ring.

[6] = tested on: human cancer patients; conditions: cited from earlier work
[7] = tested on: Sabra mice; assay: repeated administration of graded doses of F-DXR and L-DXR; type: in vivo
Experimental: L-DXR was prepared as in Example I, to final DXR concentrations of 0.5, 0.75, and 1.0 mg/ml, corresponding to phospholipid concentrations of 8, 12, and 16 μmole/ml, respectively, and cholesterol concentrations of 3.2, 4.8, and 6.4 μmole/ml, respectively. Free DXR (F-DXR) was prepared in sterile, pyrogen-free physiologic saline solution to final concentrations of 0.5, 0.75, and 1 mg/ml.
as §1, §2
(c) Effects on Body and Organ Weights. […] The weight measurements were made 42, 84, and 180 days after initial drug injection. The body and organ weights are expressed in percent relative to untreated mice. The percent survivors at each of the three time points is indicated at the top in the table; the dashes (-) indicate no survivors.

[8] = heart, read-out: DXR level in Heart
[9] = intestine, read-out: DXR level in Intestine
[10] = kidney, read-out: DXR level in Kidney
[11] = liver, read-out: DXR level in Liver
[12] = lungs, read-out: DXR level in Lungs
[13] = skeletal muscle, read-out: DXR level in Skeletal Muscle
[14] = spleen, read-out: DXR level in Spleen

## COc1cccc2c1C(=O)c1c(O)c3c(c(O)c1C2=O)C[C@@](O)(C(=O)CO)C[C@@H]3O[C@H]1C[C@H](N)[C@H](O)[C@H](C)O1 [DXR, doxorubicin]
[1]; [8]
  concentration at 1 h: 8400 ng/g
  concentration at 5 h: 4200 ng/g
  concentration at 24 h: 900 ng/g
[1]; [9]
  concentration at 1 h: 5800 ng/g
  concentration at 5 h: 3100 ng/g
  concentration at 24 h: 1900 ng/g
[1]; [10]
  concentration at 1 h: 31900 ng/g
  concentration at 5 h: 19400 ng/g
  concentration at 24 h: 6900 ng/g
[1]; [11]
  concentration at 1 h: 30500 ng/g
  concentration at 5 h: 16400 ng/g
  concentration at 24 h: 3800 ng/g
[1]; [12]
  concentration at 1 h: 13200 ng/g
  concentration at 5 h: 8600 ng/g
  concentration at 24 h: 3600 ng/g
[1]; [13]
  concentration at 1 h: 2300 ng/g
  concentration at 5 h: 2800 ng/g
  concentration at 24 h: 590 ng/g
[1]; [14]
  concentration at 1 h: 8100 ng/g
  concentration at 5 h: 10700 ng/g
  concentration at 24 h: 8800 ng/g
[2]; 10 mg/kg i.v.
  mortality at 2160 h: 20%
[2]; 15 mg/kg i.v.
  mortality at 2160 h: 100%
[2]; 20 mg/kg i.v.
  mortality at 2160 h: 100%
[2]; 25 mg/kg i.v.
  mortality at 2160 h: 100%
[3]; day 42, 10 mg/kg
  survival at 1008 h: 93%
[3]; day 84, 10 mg/kg
  survival at 2016 h: 27%
[4]; 10 mg/kg
  blood cholesterol: hypercholesterolemia
  blood glucose: decreased blood glucose
  blood triglyceride: hyperglyceridemia
[4]; 7.5 and 5 mg/kg, 180 days
  creatine levels: increased creatine levels
[4]; 180 days
  alanine aminotransferase: a drop in alanine aminotransferase
[4]; female, day 42, 10 mg/kg
  Cholesterol, percent control (untreated): 300 percent control
  Glucose, percent control (untreated): 97 percent control
[4]; female, day 84, 10 mg/kg
  Cholesterol, percent control (untreated): 383 percent control
  Glucose, percent control (untreated): 57 percent control
  Triglyceride, percent control (untreated): 416 percent control
[4]; mouse, in vivo
  liver enzymes (alkaline phosphatase and aminotransferases): Increased liver enzymes
[5]
  chemical modification with ferric iron: relatively rapid and irreversible chemical modification
[6]; patient 5, hepatoma
  previous treatment outcome: Previous failure
[6]; patient 8, hepatoma
  previous treatment outcome: failure
[7]; 10 mg/kg
  lower limb weakness: marked weakness of the lower limbs
  organ weights (liver, spleen, kidneys, heart): substantial weight reduction
[7]; 5, 7.5 and 10 mg/kg
  mortality rates, all groups: Significant mortality rates
[7]; 7 and 14 days after each injection
  white cell count: no significant differences between the F-DXR and the L-DXR treated groups
[7]; 7.5 and 5 mg/kg
  findings in animals dying: pleural and peritoneal effusions, cardiomegaly, and lung congestion
[7]; female, day 42, 10 mg/kg
  Body weight, percent relative to untreated mice: 95%
  Heart weight, percent relative to untreated mice: 97%
  Kidneys weight, percent relative to untreated mice: 78%
  Liver weight, percent relative to untreated mice: 107%
  Spleen weight, percent relative to untreated mice: 78%
[7]; female, day 84, 10 mg/kg
  Body weight, percent relative to untreated mice: 84%
  Heart weight, percent relative to untreated mice: 74%
  Kidneys weight, percent relative to untreated mice: 91%
  Liver weight, percent relative to untreated mice: 91%
  Spleen weight, percent relative to untreated mice: 67%
[7]; high and intermediate dosages
  sex difference in toxicity: slight trend towards higher toxicity in male as compared to female mice
[7]; male, day 42, 10 mg/kg
  Body weight, percent relative to untreated mice: 75%
  Heart weight, percent relative to untreated mice: 82%
  Kidneys weight, percent relative to untreated mice: 76%
  Liver weight, percent relative to untreated mice: 75%
  Spleen weight, percent relative to untreated mice: 71%

— US5043166A, “Liposome/anthraquinone drug composition and method” (priority 1989, dated 1991)
